Test results taken from ChEMBL document CHEMBL3580552, “Antiplasmodial and Cytotoxic Triterpenoids from the Bark of the Cameroonian Medicinal Plant Entandrophragma congoënse” (J Nat Prod, 2015).

Assays:
Plasmodium falciparum = assay: Antiplasmodial activity against chloroquine-sensitive erythrocytic stage Plasmodium falciparum NF54 assessed as [3H]hypoxanthine incorporation after 48 to 72 hrs by Betaplate liquid scintillation counting; format: functional, organism-based
[1] = Selectivity index, ratio of IC50 for rat L6 cells to IC50 for erythrocytic stages of Plasmodium falciparum NF54; format: toxicity, cell-based; details: read-out: Ratio IC50
L6 = assay: Cytotoxicity against rat L6 cells after 72 hrs by Alamar blue assay; format: cell-based; details: L6, 72 h

Row | SMILES | IC50 (Plasmodium falciparum) [µM] | selectivity ratio [1] | IC50 (L6; read-out: IC50) [µM] | IC50 (L6) [µM]
1 | CC(=O)O[C@@H]1C[C@H]2C(C)(C)C(=O)C=C[C@]2(C)[C@H]2CC[C@]3(C)C(=CC[C@H]3[C@@H]3C[C@H]([C@H](O)C(C)(C)O)OC3=O)[C@@]21C | 0.67 | 105 | 70.6 | –
2 | CC(C)(O)[C@H](O)[C@H]1C[C@@H]([C@@H]2CC=C3[C@]4(C)[C@H](O)C[C@H]5C(C)(C)C(=O)C=C[C@]5(C)[C@H]4CC[C@]32C)C(=O)O1 | 1.3 | 25.2 | 32.3 | –
3 | CC(=O)O[C@@H]1C[C@H]2C(C)(C)C(=O)C=C[C@]2(C)[C@H]2CC[C@]3(C)C(=CC[C@H]3[C@@H]3C[C@H]([C@@H]4OC4(C)C)OC3=O)[C@@]21C | 0.44 | 12.1 | 5.3 | –
4 | CC(=O)O[C@@H]1C[C@H]2C(C)(C)[C@H](O)CC[C@]2(C)[C@H]2CC[C@]3(C)C(=CC[C@H]3[C@@H]3C[C@H]([C@H](O)C(C)(C)O)OC3=O)[C@@]21C | 2 | 21 | 42.4 | –
5 | CC(=O)O[C@@H]1CC[C@]2(C)[C@H]3CC[C@]4(C)C(=CC[C@H]4[C@@H]4C[C@H]([C@H](O)C(C)(C)O)OC4=O)[C@]3(C)[C@H](OC(C)=O)C[C@H]2C1(C)C | 0.87 | 12.7 | 11 | –
6 | CC(C)=CC(=O)O[C@H]1CC[C@]2(C)[C@H]3CC[C@]45C[C@]4(CC[C@H]5[C@@H]4C[C@H]([C@H](O)C(C)(C)O)O[C@H]4O)[C@]3(C)[C@H](O)C[C@H]2C1(C)C | 1.4 | 4.4 | 6.5 | –
7 | CO[C@@H]1O[C@@H]([C@H](O)C(C)(O)CO)C[C@H]1[C@@H]1CC[C@]23C[C@]12CC[C@@H]1[C@@]2(C)CC[C@H](OC(=O)C=C(C)C)C(C)(C)[C@@H]2C[C@@H](O)[C@]13C (stereo partly drawn) | 1.3 | 9 | 11.9 | –
8 | CC(C)=CC(=O)O[C@H]1CC[C@]2(C)[C@H]3CC[C@]45C[C@]4(CC[C@H]5[C@@H]4C[C@H]([C@@H]5O[C@@]5(C)CO)O[C@H]4O)[C@]3(C)[C@H](O)C[C@H]2C1(C)C | 1.3 | 6.8 | 8.6 | –
9 | C=C(C)[C@@H]1CC=C2[C@H](CC[C@@]3(C)[C@H]([C@@H](C)CC(O)C(O)C(C)(C)O)CC[C@]23C)[C@@]1(C)CCC(=O)O (stereo partly drawn) | 19.3 | 2.9 | 56.1 | –
10 | COc1cc([C@@H]2c3cc4c(cc3[C@H](O)[C@H]3COC(=O)[C@H]23)OCO4)cc(OC)c1OC [PODOFILOX] | – | – | – | 0.012
